The values below come from patent US8318812B2, “Therapeutic agents for the treatment of lymphoid malignancies” (The Ohio State University Research Foundation, priority 2006, dated 2012).

pIC50: −log10 of the molar value.

The test system of one series is Jeko cells. Nature of the series: Annexin V/PI toxicity in Jeko cells. It is filed as cell-based. To be noted: Homo sapiens, WinNolin sigmoid inhibitory model. As for the experimental part: (§1) Primary MCL cells were isolated from PBMC (with informed patient consent under a protocol approved by IRB) as described before. All the MCL patients were identified as outlined by the World Health Organization (WHO) classification. Human mantle cell lymphoma patient cell lines (Mino and Jeko) were obtained from Dr. Raymond Lai. Primary cells or MCL cell lines were incubated in RPMI 1640 media, supplemented with 10%-20% heat-inactivated fetal bovine serum, 2 mM L-glutamine and penicillin (100 U/mL)/streptomycin ([…]) at 37° C. in an atmosphere of 5% CO2. FTY720 was synthesized as previously described. Toxicity was determined by flow cytometry using Annexin-V-FITC and Propidium Iodide (PI) staining. Apoptotic cells were identified as Annexin-V+ and/or PI+ cells. Cells excluding both FITC and PI were considered viable. Western Blotting was performed as described previously using indicated antibodies. The PARP (Ab-2) and Caspase 9 antibodies were purchased from Oncogene/Calbiochem/EMD Biosciences (San Diego, Calif.). Cyclin D1, Akt, Actin, Mcl-1, p-ERK, ERK and Bcl-2 were obtained from Santa Cruz biotech (Santa Cruz, Calif.).
Several therapeutic agents, including fludarabine, chlorambucil, 2-chloro-2-deoxyadenosine and glucocorticoids, induce toxicity in B cell malignancies through activating caspases, the cysteine proteases of CED3/ICE family. […]

Series [1] concerns acute myeloid leukemia (AML) cell lines. Nature of the series: MTS proliferation assay in AML cell lines. It is filed as cell-based. The conditions noted are these: 48 hours. As for the experimental part: Cell cultures were exposed for 48 hours to vehicle control and increasing concentrations of FTY720, and subsequently subjected to MTS assay per manufacturer's instructions. Mean concentrations (FIG. 9A) at which proliferation was inhibited by 50% (IC50) and representative dose curves (FIG. 9B) are shown. […] Using MTS assay, inhibition of cell proliferation for various derivatives was examined.

Series [2] relates to 697-neo and 697-Bcl-2 cell lines. Nature of the series: Annexin V/PI viability in 697-neo and 697-Bcl-2 cells. It is filed as cell-based, Human. The conditions noted are these: 24 hours. How it is done: Cells: Blood was obtained from patients with B-cell CLL with informed consent under a protocol approved by the hospital internal review board. All patients examined in this series had immunophenotypically defined CLL as outlined by the modified 96 National Cancer Institute criteria. B-CLL cells were isolated from freshly donated blood using ficoll density gradient centrifugation (Ficoll-Paque Plus, Amershan Biosciences, Piscataway, N.J.). Isolated mononuclear cells were incubated in RPMI 1640 media (Gibco/Invitrogen, Carlsbad, Calif.) supplemented with 10% heat-inactivated fetal bovine serum (FBS, Hyclone Laboratories, Logan, Utah), 2 mM L-glutamine (Invitrogen, Carlsbad, Calif.), and penicillin (100 U/mL)/streptomycin (100 μg/ml) [Sigma-Aldrich, St. Louis] at 37° C. in an atmosphere of 5% CO2. Freshly isolated B-CLL cells were used in all experiments described herein. […]
Analysis of cell viability and apoptosis: The cell viability was carried out by dual staining with Annexin V conjugated to flourescein-isothyocyanate (FITC) and Propidium iodide (PI) as described previously. Briefly, 1×10^6 cells were stained with Annexin V-FITC (BD Pharmingen) and Propidium iodide (BD Pharmingen) for 15 minutes in dark and analyzed by flow cytometry using a Beckman-Coulter EPICS XL cytometer (Beckman-Coulter, Miami, Fla.). […]

Another series has as its system Mino cells. Nature of the series: Annexin V/PI toxicity in Mino cells. It is filed as cell-based, Human. To be noted: Homo sapiens, WinNolin sigmoid inhibitory model. How it is done:
as §1
Several therapeutic agents, including fludarabine, chlorambucil, 2-chloro-2-deoxyadenosine and glucocorticoids, induce toxicity in B cell malignancies through activating caspases, the cysteine proteases of CED3/ICE family. Inhibition of these caspases results in abrogation of apoptosis mediated by the toxic stimuli. To determine if caspase activation is involved in FTY720-induced cytotoxicity in MCL, we pretreated Mino cells with 150 μM broad spectrum caspase inhibitor z-VAD-fmk. […] Activation of caspases results in cleavage of key cellular proteins including poly-ADP-ribose polymerase (PARP).

Take `CCCCCCCCc1ccc(CCC(N)(CO)CO)cc1.Cl` [FTY720, 2-Amino-2-[2-(4-octylphenyl)ethyl]propane 1,3-diol hydrochloride]: the values for the pIC50 with Jeko cells and with Mino cells were 5.35 and 4.93, respectively. Further, the “proliferation of AML cell lines (MTS)” value in series [1] is “inhibits proliferation”. Further, the “cellular cytotoxicity in 697-neo versus 697-Bcl-2 over expressing cell line” value in series [2] is recorded as “comparable levels of cellular cytotoxicity”.
